Source: PMC8003779, “Determination of Cytotoxic Activity of Sanguinaria canadensis Extracts against Human Melanoma Cells and Comparison of Their Cytotoxicity with Cytotoxicity of Some Anticancer Drugs” (Molecules, 2021)
≈ marks a conversion by molar mass, not a printed value. Like-named read-outs stand apart in the source and are kept apart here.

Tests used:
SK-MEL-3 cells [1] = assay: Cell viability (MTT assay), SK-MEL-3 melanoma cells; assay type: cell-based, human; settings: for IC50: Homo sapiens, read-out: IC50 ± SD for Cell Viability, SK-MEL-3
Excerpt: (§1) Cytotoxicity of the plant extracts, berberine, chelerythrine, chelidonine, protopine, and sanguinarine were examined against a panel of three melanoma cell lines (A375, G-361, SK-MEL-3) characterized by different degrees of genetic complexity. Human skin fibroblasts (CRL-1474) were used in order to evaluate the effect of Saguinaria canadensis extracts against normal (i.e., non-cancerous) cells. The investigated cell lines were obtained from American Type Culture Collection (ATCC; Manassas, VA, USA). A375 and CRL-1474 cells were cultured in Dulbecco’s Modified Eagle’s Medium (DMEM) (Sigma Aldrich, St. Louis, MO, USA), supplemented with 10% heat inactivated fetal bovine serum (FBS), penicillin (100 U/mL), and streptomycin (100 µg/mL). Human melanoma SK-MEL-3 and G-361 cells were maintained in McCoy’s 5A Medium (Sigma Aldrich, St. Louis, MO, USA) supplemented with 15% (for SK-MEL-3) or 10% (for G-361) FBS, penicillin (100 U/mL), and streptomycin (100 µg/mL). The cells were maintained at 37 °C in a 5% CO2 atmosphere. The dried plant extracts and standards ([…]) were dissolved in DMSO, in order to obtain stock solutions at concentrations of 50 mg/mL. At the day of the experiment, the suspension of cells (1 × 10^5 cells/mL) in the respective medium was applied to a 96-wellplate at 100 µL per well. After 24 h of incubation, the medium was removed from the wells and replaced by increasing concentrations of plant extracts or standards in medium containing 2% FBS. The control cells were only cultured with a medium containing 2% FBS. Cytotoxicity of DMSO was also checked at concentrations present in respective dilutions of stock solutions. After 24 h of incubation, 15 µL MTT working solution (5 mg/mL in PBS) was added to each well. The plate was incubated for 3 h. Subsequently, 100 µL of 10% SDS solution was added to each well. Cells were incubated overnight at 37 °C to dissolve the precipitated formazan crystals. The concentration of the dissolved formazan was evaluated by measuring the absorbance at λ = 570 nm, using a microplate reader (Epoch, BioTek Instruments, Inc., Winooski, VT, USA). Two independent experiments were performed in triplicates. The results of the MTT assay were expressed as mean ± SD. […] IC50 values of the investigated extracts and alkaloid standards were calculated using the IC50 calculator (www.IC50.tk (accessed on 22 January 2021)).
(§2) To determine the selectivity index (SI), IC50 values for human normal fibroblasts was obtained in the same conditions as that used for cancer cell lines. Selectivity index of each compound was determined by calculating the ratio of IC50 values obtained for human normal fibroblasts and cancer cell lines.

A375 cells = assay: Cell viability (MTT assay), A375 melanoma cells; assay type: cell-based, human; settings: for IC50: Homo sapiens, read-out: IC50 ± SD for Cell Viability, A375
Excerpt: as §1, §2

G-361 cells = assay: Cell viability (MTT assay), G-361 melanoma cells; assay type: cell-based, human; settings: for IC50: Homo sapiens, read-out: IC50 ± SD for Cell Viability, G-361
Excerpt: as §1, §2

[2] = source not given; cited from earlier work
[3] = tested on: melanoma cell lines (A375, G-361, SK-MEL-3); assay: Cell viability (MTT assay), all three melanoma cell lines taken together; assay type: cell-based, human
Excerpt: Cytotoxicity of the plant extracts, berberine, chelerythrine, chelidonine, protopine, and sanguinarine were examined against a panel of three melanoma cell lines (A375, G-361, SK-MEL-3) characterized by different degrees of genetic complexity. Human skin fibroblasts (CRL-1474) were used in order to evaluate the effect of Saguinaria canadensis extracts against normal (i.e., non-cancerous) cells. The investigated cell lines were obtained from American Type Culture Collection (ATCC; Manassas, VA, USA). A375 and CRL-1474 cells were cultured in Dulbecco’s Modified Eagle’s Medium (DMEM) (Sigma Aldrich, St. Louis, MO, USA), supplemented with 10% heat inactivated fetal bovine serum (FBS), penicillin (100 U/mL), and streptomycin (100 µg/mL). Human melanoma SK-MEL-3 and G-361 cells were maintained in McCoy’s 5A Medium (Sigma Aldrich, St. Louis, MO, USA) supplemented with 15% (for SK-MEL-3) or 10% (for G-361) FBS, penicillin (100 U/mL), and streptomycin (100 µg/mL). […] The concentration of the dissolved formazan was evaluated by measuring the absorbance at λ = 570 nm, using a microplate reader (Epoch, BioTek Instruments, Inc., Winooski, VT, USA). […] The results of the MTT assay were expressed as mean ± SD. […] IC50 values of the investigated extracts and alkaloid standards were calculated using the IC50 calculator (www.IC50.tk (accessed on 22 January 2021)).

SK-MEL-3 cells [4] = assay: Cell proliferation, BrdU incorporation assay; assay type: cell-based, human; settings: 24 h incubation, 0.25–100 µg/mL
Description: The antiproliferative effect of S. canadensis extracts was measured by means of the BrdU assay, which indicates the rate of incorporation of 5′-bromo-2′-deoxy-uridine (BrdU) during DNA biosynthesis. In brief, SK-MEL-3 cells were plated in 96-well plates (NUNC, Roskilde, Denmark) at the density of 5 × 10^4 cells/mL. The next day, cells were exposed to increased concentrations (0.25–100 µg/mL) of S. canadensis extracts or cisplatin or a fresh culture medium. Cell proliferation was examined after 24 h incubation, according to the manufacturer’s protocol (Cell Proliferation ELISA BrdU, Roche Diagnostics GmbH, Penzberg, Germany). IC50 values of the investigated extracts and cisplatin were calculated using IC50 calculator [www.IC50.tk (accessed on 11 March 2021)].

[5] = SK-MEL3, MTT, 24 h exposure, medium with 2% FBS
[6] = A-375, MTT, 24 h exposure, medium with 2% FBS
[7] = G-361, MTT, 24 h exposure, medium with 2% FBS
[8] = MTT, 24 h exposure, medium with 2% FBS

COc1ccc2cc3[n+](cc2c1OC)CCc1cc2c(cc1-3)OCO2 [Berberine]
IC50 (SK-MEL-3 cells [1]; [5]): 41 ± 5.36 µg/mL | IC50 (A375 cells; [6]): 51.6 ± 4.84 µg/mL | IC50 (G-361 cells; [7]): 21 ± 3.25 µg/mL | Log P [2]: −1.3 | pKa [2]: −4.4

COc1ccc2c(c[n+](C)c3c4cc5c(cc4ccc23)OCO5)c1OC [Chelerythrine]
IC50 (SK-MEL-3 cells [1]; [5]): 0.14 ± 0.004 µg/mL | IC50 (A375 cells; [6]): 0.19 ± 0.04 µg/mL | IC50 (G-361 cells; [7]): 0.46 ± 0.07 µg/mL | Log P [2]: −0.88 | pKa [2]: −4.4

CN1Cc2c(ccc3c2OCO3)[C@@H]2[C@H]1c1cc3c(cc1C[C@@H]2O)OCO3 [Chelidonine]
IC50 (SK-MEL-3 cells [1]; SK-MEL3, 24 h): > 50 µg/mL | IC50 ([3]; Homo sapiens, 24 h, read-out: IC50, cell viability, across all tested melanoma cell lines, A375, G-361, SK-MEL-3): > 50 µg/mL | IC50 (A375 cells; A-375, 24 h): > 50 µg/mL | IC50 (G-361 cells; G-361, 24 h): > 50 µg/mL | Log P [2]: 2.05 | pKa [2]: 5.73

N.N.[Cl][Pt][Cl] [Cisplatin]
IC50 ± SD for Cell Viability, SK-MEL-3 (SK-MEL-3 cells [1]; [8]): 14.42 ± 1.61 µg/mL | IC50 ± SD for Cell Viability, A375 (A375 cells; [8]): 10.62 ± 1.04 µg/mL | IC50 ± SD for Cell Viability, G-361 (G-361 cells; [8]): 11.53 ± 1.46 µg/mL | IC50 ± SD for Cell Proliferation Measured by BrdU Incorporation in SK-MEL-3 Cells (SK-MEL-3 cells [4]): 24.84 ± 3.60 µg/mL

COc1cc([C@@H]2c3cc4c(cc3[C@@H](O[C@@H]3O[C@@H]5CO[C@@H](C)O[C@H]5[C@H](O)[C@H]3O)[C@H]3COC(=O)[C@H]23)OCO4)cc(OC)c1O [Etoposide]
IC50 (SK-MEL-3 cells [1]; [5]): > 200 µg/mL | IC50 (A375 cells; [6]): 92.3 ± 4.58 µg/mL (≈ 157 µM) | IC50 (G-361 cells; [7]): 52.3 ± 3.86 µg/mL (≈ 88.9 µM)

NC(=O)NO [Hydroxyurea]
IC50 ± SD for Cell Viability, SK-MEL-3 (SK-MEL-3 cells [1]; [8]): >200 µg/mL | IC50 ± SD for Cell Viability, A375 (A375 cells; [8]): >200 µg/mL | IC50 ± SD for Cell Viability, G-361 (G-361 cells; [8]): >200 µg/mL

C[n+]1cc2c3c(ccc2c2ccc4cc5c(cc4c21)OCO5)OCO3 [Sanguinarine]
IC50 (SK-MEL-3 cells [1]; SK-MEL3, 24 h): 0.54 ± 0.16 µg/mL | IC50 (A375 cells; A-375, 24 h): 0.11 ± 0.003 µg/mL | IC50 (G-361 cells; G-361, 24 h): 0.17 ± 0.02 µg/mL | Log P [2]: −0.94 | pKa [2]: −4.5

Protopine
IC50 ± SD for Cell Viability, SK-MEL-3 (SK-MEL-3 cells [1]; [8]): >50 µg/mL | IC50, cell viability, across all tested melanoma cell lines ([3]; A375, G-361, SK-MEL-3, 24 h): more than 50 µg/mL | IC50 ± SD for Cell Viability, A375 (A375 cells; [8]): >50 µg/mL | IC50 ± SD for Cell Viability, G-361 (G-361 cells; [8]): >50 µg/mL | Log P [2]: 2.59 | pKa [2]: 4.95
